This passage reports EC50 results from patent publication US20230348426A1, “OXOPYRROLIDINE FPR2 AGONISTS” (Bristol-Myers Squibb Company, priority 2020, published 2023).

One experiment deals with human FPR1 (Homo sapiens (Human), UniProt P21462). Briefly: FPR1 cyclic adenosine monophosphate (cAMP) assay. To be noted: CHO cells overexpressing human FPR1; forskolin 10 µM; inhibition of cAMP production; read-out: hFPR1 cAMP EC50. The experiment is classed as cell-based. In short, it runs like this: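 Human FPR1-expressing CHO cells were used at 4,000 per well, with compound at 0.020 nM–100 µM in 1% DMSO. Potency came from a 4-parameter logistic fit.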
Sequence of human FPR1 (P21462 whole entry): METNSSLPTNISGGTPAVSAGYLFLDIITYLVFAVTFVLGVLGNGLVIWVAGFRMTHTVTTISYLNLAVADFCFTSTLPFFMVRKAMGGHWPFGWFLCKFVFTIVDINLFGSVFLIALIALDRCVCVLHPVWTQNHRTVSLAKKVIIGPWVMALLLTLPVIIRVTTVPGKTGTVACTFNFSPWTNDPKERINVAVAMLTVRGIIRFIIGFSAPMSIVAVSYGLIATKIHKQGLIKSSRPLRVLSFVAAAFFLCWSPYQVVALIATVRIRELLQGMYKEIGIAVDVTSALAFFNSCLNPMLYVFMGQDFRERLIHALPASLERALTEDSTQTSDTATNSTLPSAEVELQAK

For a further experiment, the target named is human FPR2 (Homo sapiens (Human), UniProt P25090). The experiment can be described thus: FPR2 cyclic adenosine monophosphate (cAMP) assay. The experiment is classed as cell-based. The following applies: CHO cells overexpressing human FPR2; forskolin 5 µM; inhibition of cAMP production; read-out: hFPR2 cAMP2 EC50. In short, it runs like this:
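Inhibition of forskolin-driven (5 µM) cAMP, with 200 µM IBMX, measured in human FPR2-expressing CHO cells, 2,000 per well, 30 min at room temperature; compounds tested 0.020 nM to 100 µM in 1% DMSO. HTRF 665/590 ratio converted to cAMP via calibration curve, then 4-parameter fit.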
A general note: Changes in cAMP serve as a functional read-out for many G protein-coupled receptors.

Sequence of human FPR2 (P25090 whole entry): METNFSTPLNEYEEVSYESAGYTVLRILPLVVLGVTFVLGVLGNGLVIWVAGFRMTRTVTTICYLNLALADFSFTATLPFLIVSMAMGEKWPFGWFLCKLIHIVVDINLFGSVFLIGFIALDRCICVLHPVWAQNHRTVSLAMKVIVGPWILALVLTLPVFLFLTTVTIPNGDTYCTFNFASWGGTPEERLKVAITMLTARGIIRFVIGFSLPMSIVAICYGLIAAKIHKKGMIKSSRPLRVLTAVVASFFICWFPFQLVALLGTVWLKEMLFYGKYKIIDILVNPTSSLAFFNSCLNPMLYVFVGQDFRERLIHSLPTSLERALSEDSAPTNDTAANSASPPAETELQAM

A word on the EC50: it is the concentration giving half of the maximal effect. Consider `COc1cc(F)c([C@@H]2CN(c3cccc(N4CCN(C)CC4)n3)C(=O)[C@H]2NC(=O)c2ccc(OC(F)F)cc2)c(F)c1` [Example 566], for which the EC50 on human FPR1 turned out to be 990 nM; at human FPR2, 1.1 nM.

As to `COc1cc(F)c([C@@H]2CN(c3cccc(N4CCN(S(C)(=O)=O)CC4)n3)C(=O)[C@H]2NC(=O)c2ccc(OC(F)F)cc2)c(F)c1` [Example 567], the EC50 at human FPR1 is greater than 5000 nM; on human FPR2, 9.6 nM.

Regarding `COc1cc(F)c([C@H]2[C@H](NC(=O)c3ccc(OC(F)F)cc3)C(=O)N(c3cccc(N4CC[C@H](O)C4)n3)[C@H]2C)c(F)c1` [Example 568], the EC50 on human FPR1 stood at 440 nM; at human FPR2 it was 2.8 nM.

`COc1cc(F)c([C@@H]2CN(c3ccc(F)c(N4C[C@@H]5C[C@H]4CN5C)n3)C(=O)[C@H]2NC(=O)c2ccc(OC(F)F)cc2)c(F)c1` [Example 569]: the EC50 at human FPR1 amounted to 1600 nM; on human FPR2 it was 1.2 nM.

Consider `COc1cc(F)c([C@@H]2CN(c3cc(C)cc(N4C[C@@H]5C[C@H]4CN5C)n3)C(=O)[C@H]2NC(=O)c2ccc(OC(F)F)cc2)c(F)c1` [Example 570], for which the EC50 on human FPR1 turned out to be 1500 nM; on human FPR2 it was 1.2 nM.

Regarding `COc1cc(F)c([C@@H]2CN(c3cc(C)cc(N4C[C@@H]5C[C@H]4CN5C)n3)C(=O)[C@H]2NC(=O)c2ccc(OC(F)(F)F)cc2)c(F)c1` [Example 571], the figures for the EC50 on human FPR1 and at human FPR2 were 580 nM and 6 nM, respectively.

On to `COc1cc(F)c([C@@H]2CN(c3ccc(F)c(N4C[C@@H]5C[C@H]4CN5C)n3)C(=O)[C@H]2NC(=O)c2ccc(OC(F)(F)F)cc2)c(F)c1` [Example 572], for which the figures for the EC50 on human FPR1 and on human FPR2 were 1600 nM and 3.5 nM, respectively.

In the case of `COc1cc(F)c([C@H]2[C@H](NC(=O)c3ccc(OC(F)F)cc3)C(=O)N(c3cccc(N4CCOCC4)n3)[C@H]2C)c(F)c1` [Example 574], the EC50 turned out to be 550 nM at human FPR1 and 15 nM on human FPR2.

On to `COc1cc(C2CC2)nc(N2C(=O)[C@@H](NC(=O)c3ccc(OC(F)(F)F)cc3)[C@H](c3c(F)cc(OC)cc3F)[C@@H]2C)c1` [Example 575], for which the EC50 at human FPR1 is greater than 5000 nM; at human FPR2 it was 480 nM.

In the case of `COc1cc(F)c([C@@H]2CN(c3c(C)ccn(CCS(C)(=O)=O)c3=O)C(=O)[C@H]2NC(=O)c2ccc(OC(F)(F)F)cc2)c(F)c1` [Example 576], the EC50 at human FPR1 amounted to 1.5 nM; at human FPR2, 1.4 nM.

Take `COc1ccc([C@@H]2CN(c3c(C)ccn(C4CCC4)c3=O)C(=O)[C@H]2NC(=O)c2ccc(OC(F)F)cc2)cc1` [Example 577]: the EC50 at human FPR1 amounted to 0.2 nM; at human FPR2 it was 0.6 nM.

Take `COc1ccc([C@@H]2CN(c3c(C)ccn(C4COC4)c3=O)C(=O)[C@H]2NC(=O)c2ccc(OC(F)(F)F)cc2)cc1` [Example 578]: the values for the EC50 on human FPR1 and at human FPR2 were 6 nM and 1.5 nM, respectively.

For `COc1cc(F)c([C@@H]2CN(c3c(C)ccn(Cc4cc(C)no4)c3=O)C(=O)[C@H]2NC(=O)c2ccc(OC(F)F)cc2)c(F)c1` [Example 579], the EC50 at human FPR1 is 5.5 nM; at human FPR2, 5.8 nM.

In the case of `COc1cc(F)c([C@@H]2CN(c3cccc(N4CCOCC4)n3)C(=O)[C@H]2NC(=O)c2ccc(OC(F)F)cc2)c(F)c1` [Example 580], the EC50 on human FPR1 was 740 nM; at human FPR2, 3.6 nM.

On to `COc1cc(F)c([C@@H]2CN(c3c(C)ccn(CC(C)O)c3=O)C(=O)[C@H]2NC(=O)c2ccc(Cl)cc2)c(F)c1` (stereo partly drawn) [Example 581], for which the EC50 at human FPR1 turned out to be 10 nM; on human FPR2, 1.3 nM.

In the case of `COc1cc(F)c([C@@H]2CN(c3cccn(C(CO)C(F)(F)F)c3=O)C(=O)[C@H]2NC(=O)c2ccc(OC(F)F)cc2)c(F)c1` (stereo partly drawn) [Example 582], the values for the EC50 on human FPR1 and at human FPR2 were 550 nM and 4.7 nM, respectively.

Turning to `COc1cc(F)c([C@@H]2CN(c3cccn(C(CO)C(F)(F)F)c3=O)C(=O)[C@H]2NC(=O)c2ccc(OC(F)F)cc2)c(F)c1` (stereo partly drawn) [Example 583], the EC50 came out at 57 nM at human FPR1 and 3.8 nM on human FPR2.

On to `COc1cc(N2C[C@@H](c3c(F)cc(OC)cc3F)[C@H](NC(=O)c3ccc(OC(F)(F)F)cc3)C2=O)nc(C(C)(C)O)c1` [Example 584], for which the EC50 at human FPR1 worked out at 660 nM; at human FPR2, 21.8 nM.

`COc1cc(N2C[C@@H](c3c(F)cc(OC)cc3F)[C@H](NC(=O)c3ccc(OC(F)F)cc3)C2=O)nc(C(C)(C)O)c1` [Example 585]: the concentration giving a half-maximal response (EC50) stood at 1200 nM at human FPR1 and 21.8 nM on human FPR2.

On to `COc1cc(CO)nc(N2C[C@@H](c3c(F)cc(OC)cc3F)[C@H](NC(=O)c3ccc(OC(F)F)cc3)C2=O)c1` [Example 586], for which the EC50 at human FPR1 was 1300 nM; on human FPR2 it was 9.8 nM.

With `COc1cc(CO)nc(N2C[C@@H](c3c(F)cc(OC)cc3F)[C@H](NC(=O)c3ccc(OC(F)(F)F)cc3)C2=O)c1` [Example 587], the EC50 came to 600 nM at human FPR1 and 1.1 nM on human FPR2.

Consider `COc1cc(C)nc(N2C[C@@H](c3c(F)cc(OC)cc3F)[C@H](NC(=O)c3ccc(OC(F)F)cc3)C2=O)c1` [Example 588], for which the EC50 at human FPR1 worked out at 410 nM; at human FPR2, 6.9 nM.

Take `COc1cc(C2CC2)nc(N2C[C@@H](c3c(F)cc(OC)cc3F)[C@H](NC(=O)c3ccc(OC(F)F)cc3)C2=O)c1` [Example 589]: the EC50 on human FPR1 amounted to 2600 nM; on human FPR2, 130 nM.

Take `COc1cc(F)c([C@@H]2CN(c3nc(C4CCN(CCO)CC4)ccc3F)C(=O)[C@H]2NC(=O)c2ccc(OC(F)F)cc2)c(F)c1` [Example 590]: the values for the EC50 on human FPR1 and at human FPR2 were 1600 nM and 1.9 nM, respectively.

`COc1cc(F)c([C@@H]2CN(c3c(C)c4c(n(CCO)c3=O)CCC4)C(=O)[C@H]2NC(=O)c2ccc(OC(F)F)cc2)c(F)c1` [Example 591]: the values for the EC50 at human FPR1 and on human FPR2 were 8.5 nM and 10.5 nM, respectively.

For `COc1cc(F)c([C@@H]2CN(c3c(C)c4c(n(CCO)c3=O)CCC4)C(=O)[C@H]2NC(=O)c2ccc(OC(F)(F)F)cc2)c(F)c1` [Example 592], the EC50 at human FPR1 turned out to be 6.2 nM; on human FPR2, 7.1 nM.

Regarding `COc1cc(F)c([C@@H]2CN(c3c(C)c4c(n(CCO)c3=O)CCC4)C(=O)[C@H]2NC(=O)c2ccc(Cl)cc2)c(F)c1` [Example 593], the EC50 at human FPR1 amounted to 40 nM; at human FPR2, 3.3 nM.

As to `COc1ccc([C@@H]2CN(c3c(C)ccn(CCC(F)(F)F)c3=O)C(=O)[C@H]2NC(=O)c2ccc(Cl)cc2)cc1` [Example 594], the EC50 was 1.4 nM on human FPR1 and 2.4 nM at human FPR2.

Consider `COc1cc(F)c([C@@H]2CN(c3c(C)ccn(CC#N)c3=O)C(=O)[C@H]2NC(=O)c2ccc(OC(F)(F)F)cc2)c(F)c1` [Example 595], for which the EC50 at human FPR1 is 13 nM; on human FPR2, 2.4 nM.

On to `COc1cc(F)c([C@@H]2CN(c3cnn4c3OCCC4)C(=O)[C@H]2NC(=O)c2ccc(Cl)cc2)c(F)c1` [Example 596], for which the EC50 at human FPR1 came to 860 nM; on human FPR2, 43.7 nM.

In the case of `COc1cc(F)c([C@@H]2CN(c3cnn4c3OCCC4)C(=O)[C@H]2NC(=O)c2ccc(OC(F)F)cc2)c(F)c1` [Example 597], the EC50 came to 210 nM at human FPR1 and 1.5 nM on human FPR2.

As to `COc1cc(F)c([C@@H]2CN(c3cnn4c3OCCC4)C(=O)[C@H]2NC(=O)c2ccc(OC(F)(F)F)cc2)c(F)c1` [Example 598], the EC50 was determined as 590 nM on human FPR1 and 6.2 nM on human FPR2.

Regarding `COc1cc(F)c([C@@H]2CN(c3cccn4c(C)nnc34)C(=O)[C@H]2NC(=O)c2ccc(OC(F)F)cc2)c(F)c1` [Example 599], the EC50 at human FPR1 is 40 nM; at human FPR2, 4.1 nM.

As for `COc1cc(F)c([C@@H]2CN(c3c(C)ccn(C(F)(F)C(=O)N4CCOCC4)c3=O)C(=O)[C@H]2NC(=O)c2ccc(OC(F)F)cc2)c(F)c1` [Example 600], the figures for the EC50 on human FPR1 and on human FPR2 were 170 nM and 7.8 nM, respectively.

On to `COc1cc(F)c([C@@H]2CN(c3c(C)ccn(C4CCNC4)c3=O)C(=O)[C@H]2NC(=O)c2ccc(OC(F)F)cc2)c(F)c1` (stereo partly drawn) [Example 601], for which the EC50 on human FPR1 turned out to be 170 nM; on human FPR2 it was 2 nM.

Consider `COc1cc(F)c([C@@H]2CN(c3c(C)ccn(C4CCNC4)c3=O)C(=O)[C@H]2NC(=O)c2ccc(OC(F)(F)F)cc2)c(F)c1` (stereo partly drawn) [Example 602], for which the values for the EC50 on human FPR1 and on human FPR2 were 88 nM and 3.8 nM, respectively.

Consider `COc1cc(F)c([C@@H]2CN(c3cccn4c(C)nnc34)C(=O)[C@H]2NC(=O)c2ccc(Cl)cc2)c(F)c1` [Example 603], for which the EC50 is 56 nM at human FPR1 and 3.9 nM on human FPR2.

With `COc1cc(F)c([C@@H]2CN(c3cccn4c(C)nnc34)C(=O)[C@H]2NC(=O)c2ccc(OC(F)(F)F)cc2)c(F)c1` [Example 604], the EC50 on human FPR1 is 15 nM; at human FPR2, 0.5 nM.

Turning to `COc1cc(F)c([C@@H]2CN(c3c(C)c4c(n(CCO)c3=O)CCCC4)C(=O)[C@H]2NC(=O)c2ccc(OC(F)F)cc2)c(F)c1` [Example 605], the values for the EC50 on human FPR1 and on human FPR2 were 1.9 nM and less than 5 nM, respectively.

For the compound `COc1cc(F)c([C@@H]2CN(c3c(C)c4c(n(CCO)c3=O)CCCC4)C(=O)[C@H]2NC(=O)c2ccc(OC(F)(F)F)cc2)c(F)c1` [Example 606], the EC50 at human FPR1 was 53 nM; on human FPR2, 20 nM.

For `COc1cc(F)c([C@@H]2CN(c3c(C)c4c(n(CCO)c3=O)CCCC4)C(=O)[C@H]2NC(=O)c2ccc(Cl)cc2)c(F)c1` [Example 607], the values for the EC50 at human FPR1 and at human FPR2 were 30 nM and 13.3 nM, respectively.

Consider `O=C(N[C@@H]1C(=O)N(c2cccn(CC(O)C(F)(F)F)c2=O)C[C@H]1c1ccc(Cl)cc1)c1ccc(OC(F)(F)F)cc1` (stereo partly drawn) [Example 608], for which the EC50 amounted to 4.2 nM on human FPR1 and 4.1 nM on human FPR2.
